Source: US20240238424A1, “HETEROBIFUNCTIONAL COMPOUNDS AND METHODS OF TREATING DISEASE” (Halda Therapeutics OpCo, Inc., priority 2021, published 2024)

Tests used:
Type in all cases: cell-based
GSPT1 = biological target: T1, GSPT1 (Homo sapiens, UniProt P15170+Q96SW2); assay: GSPT1 HiBit degradation assay; conditions: Table 3A; HEK293 LgBiT cells expressing GSPT1_HiBiT, luminescence after 6 hours
T1 construct: host or cells: HEK293 LgBiT cell line
Summary of the method: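 Degradation readout is luminescence at 6 h, with DC50 taken as the concentration giving 50% GSPT1 loss. Compound titrations were added together with endurazine (0.5× final) to HEK293 LgBiT/GSPT1-HiBiT cells seeded the day before and kept at 37 °C.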

[1] = test system: 293 mutant EGFR_T790M L858R Cells; assay: Cellular growth inhibition assay (CTG), 293 mutant EGFR_T790M L858R cells; conditions: 293 mutant EGFR T790M L858R cells, CellTiter-Glo 2.0, day-5
Protocol: Cells were seeded in Poly-D-lysine-treated 384-well white plates, with 25 μL cell suspension at 250 cells/well for continuous treatments, and 1000 cells/well for washout treatments. Plates were spun at 300×g for 3 minutes, and cells were cultured at 37° C. with 5% CO2 in a humidified tissue culture incubator.
After 24 hours, the test compounds were diluted with cell culture medium in 96 deep well plates. DMSO was used as a negative control. A 25 μL aliquot of compound-containing medium was added in each well, at a final top concentration of 10 μM or 30 μM test compound, with 3-fold dilutions. For washout assays, after 4 hours, cell medium with compound was removed, and the cells were washed with 75p L fresh medium. Plates were then spun at 300×g for 3 minutes and replaced with 50 μL fresh medium in each well. Plates were then spun at 300×g for 3 minutes again and cultured at 37° C. with 5% CO2.
At day-0 and day-5 of compound treatments, cell viability was quantified with CellTiter-Glo 2.0 (Promega). After equilibrating cell plates at room temperature for 30 minutes, 25 μL CellTiter-Glo 2.0 reagent was dispensed into each well (on top of 50 μL of cell culture). Plates were mixed on a shaker for 2 minutes at 500 rpm, followed by a 10-minute incubation at room temperature. Luminescence readings were measured with an EnVision Plate Reader. Data was normalized to DMSO treated day-0 cell wells. A four-parameter non-linear regression curve fit was applied to dose-response data in Prism to determine the half maximal growth inhibitory concentration (GI50) of each compound.

HeLa KRas G12C cells = assay: Cellular growth inhibition assay (CTG), HeLa KRas G12C cells; conditions: Homo sapiens, CellTiter-Glo 2.0, day-5
Summary of the method: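 Cells were seeded at 250 cells/well (continuous) or 1000 cells/well (washout, compound removed after 4 h), then treated after 24 h with 3-fold dilutions from a 10 μM or 30 μM final top concentration. CellTiter-Glo 2.0 luminescence at day 0 and day 5 was normalized to DMSO day-0 wells; GI50 from four-parameter fit.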

T1 sequence (P15170 whole entry): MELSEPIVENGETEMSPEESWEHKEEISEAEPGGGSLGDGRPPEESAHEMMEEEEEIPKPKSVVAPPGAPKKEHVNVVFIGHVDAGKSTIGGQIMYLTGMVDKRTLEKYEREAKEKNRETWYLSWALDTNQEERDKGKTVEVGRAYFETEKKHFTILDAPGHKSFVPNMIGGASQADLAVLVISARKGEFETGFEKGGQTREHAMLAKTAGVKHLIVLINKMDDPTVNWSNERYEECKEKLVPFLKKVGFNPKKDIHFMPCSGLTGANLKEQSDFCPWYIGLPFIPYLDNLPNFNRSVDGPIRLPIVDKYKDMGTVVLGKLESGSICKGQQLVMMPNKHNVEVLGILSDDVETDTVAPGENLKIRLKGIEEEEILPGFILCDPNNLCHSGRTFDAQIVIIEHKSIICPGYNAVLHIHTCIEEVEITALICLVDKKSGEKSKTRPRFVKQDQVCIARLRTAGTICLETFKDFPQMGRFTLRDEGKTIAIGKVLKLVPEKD
T1 sequence (Q96SW2 whole entry): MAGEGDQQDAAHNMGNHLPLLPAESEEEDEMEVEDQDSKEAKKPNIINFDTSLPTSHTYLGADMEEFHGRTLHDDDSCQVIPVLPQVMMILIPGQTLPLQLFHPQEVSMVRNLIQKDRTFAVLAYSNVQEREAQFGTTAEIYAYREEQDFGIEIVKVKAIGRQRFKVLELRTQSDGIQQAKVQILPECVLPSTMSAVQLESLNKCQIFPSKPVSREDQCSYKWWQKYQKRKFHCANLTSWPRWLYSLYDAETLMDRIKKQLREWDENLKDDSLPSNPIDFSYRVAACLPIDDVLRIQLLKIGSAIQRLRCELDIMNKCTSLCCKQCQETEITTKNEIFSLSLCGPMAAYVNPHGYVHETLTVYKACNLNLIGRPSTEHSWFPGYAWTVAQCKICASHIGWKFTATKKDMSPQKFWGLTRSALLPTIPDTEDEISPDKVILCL
T1 sequence (Q16531 whole entry partner): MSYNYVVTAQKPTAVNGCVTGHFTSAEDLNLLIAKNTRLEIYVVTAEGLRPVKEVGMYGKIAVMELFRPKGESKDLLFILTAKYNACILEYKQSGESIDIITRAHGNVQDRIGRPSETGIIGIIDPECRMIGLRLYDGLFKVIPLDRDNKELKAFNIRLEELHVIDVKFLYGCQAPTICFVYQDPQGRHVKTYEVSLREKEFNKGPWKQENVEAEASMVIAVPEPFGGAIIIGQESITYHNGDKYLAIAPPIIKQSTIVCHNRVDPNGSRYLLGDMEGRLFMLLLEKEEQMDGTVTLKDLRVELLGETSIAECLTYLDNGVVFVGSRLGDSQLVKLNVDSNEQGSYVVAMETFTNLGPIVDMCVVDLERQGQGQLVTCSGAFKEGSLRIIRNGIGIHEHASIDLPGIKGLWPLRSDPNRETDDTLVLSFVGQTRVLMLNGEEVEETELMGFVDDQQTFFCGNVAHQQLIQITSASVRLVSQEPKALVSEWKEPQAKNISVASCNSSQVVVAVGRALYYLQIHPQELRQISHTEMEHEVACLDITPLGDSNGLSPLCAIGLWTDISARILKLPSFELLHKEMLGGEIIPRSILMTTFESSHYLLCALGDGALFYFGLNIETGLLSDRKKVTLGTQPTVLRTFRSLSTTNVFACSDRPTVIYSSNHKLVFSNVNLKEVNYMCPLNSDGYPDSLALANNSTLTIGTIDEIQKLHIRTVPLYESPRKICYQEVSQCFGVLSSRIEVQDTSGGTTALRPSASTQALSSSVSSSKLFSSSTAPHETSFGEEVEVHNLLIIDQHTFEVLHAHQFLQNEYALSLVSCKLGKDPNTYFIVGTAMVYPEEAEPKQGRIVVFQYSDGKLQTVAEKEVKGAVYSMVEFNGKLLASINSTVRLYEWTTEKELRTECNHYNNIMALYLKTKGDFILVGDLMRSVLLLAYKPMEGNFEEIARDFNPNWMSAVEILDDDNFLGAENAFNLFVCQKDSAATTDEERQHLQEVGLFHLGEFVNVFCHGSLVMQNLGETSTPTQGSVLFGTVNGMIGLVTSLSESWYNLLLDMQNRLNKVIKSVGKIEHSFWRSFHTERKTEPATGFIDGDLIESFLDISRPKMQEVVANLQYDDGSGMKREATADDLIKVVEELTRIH

Compound | DC50 (GSPT1) | GI50 [1] | GI50 (HeLa KRas G12C cells)
COc1nn(C)cc1Nc1nc(N2CC(NC(=O)/C=C/CN(C)CCOCCOCCOCCOCCOCCOCCOCCOCCOCCCCCc3cc(Cl)cc(NC(=O)NCc4ccc5c(c4)CN(C4CCC(=O)NC4=O)C5=O)c3)[C@H](F)C2)nc2c1ncn2C (stereo partly shown) [Compound I-131] | 0.25 to 5 µM | 1 to 5 µM | –
COc1cc(N(C)CCN(C)C)c(NC(=O)/C=C/CN(C)CCOCCOCCOCCOCCOCCOCCOCCOCCOCCCCCc2cc(Cl)cc(NC(=O)NCc3ccc4c(c3)CN(C3CCC(=O)NC3=O)C4=O)c2)cc1Nc1nccc(-c2cn(C)c3ccccc23)n1 (stereo not shown) [Compound I-132] | 0.25 to 5 µM | 1 to 5 µM | –
C=C(F)C(=O)N1CCN(c2nc(OC[C@@H]3CCCN3CCCOCCOCCOCCOCCOCCOCCOCCOCCOCCOCCOCCCCCc3ccc(Cl)cc3NC(=O)NCc3ccc4c(c3)CN(C3CCC(=O)NC3=O)C4=O)nc3c2CCN(c2cccc4cccc(Cl)c24)C3)C[C@@H]1CC#N (stereo partly shown) [Compound I-138] | 0.25 to 5 µM | – | 3 to 10 µM
COc1cc(N(C)CCN(C)C)c(NC(=O)/C=C/CN(C)CCOCCOCCOCCCCCc2cc(Cl)cc(NC(=O)NCc3ccc4c(c3)CN(C3CCC(=O)NC3=O)C4=O)c2)cc1Nc1nccc(-c2cn(C)c3ccccc23)n1 (stereo not shown) [Compound I-145] | 0.25 to 5 µM | 1 to 5 µM | –
COc1cc(N(C)CCN(C)C)c(NC(=O)/C=C/CN(C)CCOCCOCCOCCOCCOCCOCCOCCCCCc2cc(Cl)cc(NC(=O)NCc3ccc4c(c3)CN(C3CCC(=O)NC3=O)C4=O)c2)cc1Nc1nccc(-c2cn(C)c3ccccc23)n1 (stereo not shown) [Compound I-146] | 0.25 to 5 µM | 1 to 5 µM | –
C=C(F)C(=O)N1CCN(c2nc(OC[C@@H]3CCCN3CCCOCCOCCOCCOCCOCCOCCOCCCCCc3cccc(NC(=O)NCc4ccc5c(c4)CN(C4CCC(=O)NC4=O)C5=O)n3)nc3c2CCN(c2cccc4cccc(Cl)c24)C3)C[C@@H]1CC#N (stereo partly shown) [Compound I-147] | 5 to 10 µM | – | 3 to 10 µM
C=C(F)C(=O)N1CCN(c2nc(OC[C@@H]3CCCN3CCCOCCOCCOCCOCCOCCOCCOCCOCCOCCOCCOCCCCCc3cccc(NC(=O)NCc4ccc5c(c4)CN(C4CCC(=O)NC4=O)C5=O)n3)nc3c2CCN(c2cccc4cccc(Cl)c24)C3)C[C@@H]1CC#N (stereo partly shown) [Compound I-148] | 0.25 to 5 µM | – | 3 to 10 µM
COc1nn(C)cc1Nc1nc(N2CC(NC(=O)/C=C/CN(C)CCOCCOCCOCCCCCc3cc(Cl)cc(NC(=O)NCc4ccc5c(c4)CN(C4CCC(=O)NC4=O)C5=O)c3)[C@H](F)C2)nc2c1ncn2C (stereo partly shown) [Compound I-150] | 0.25 to 5 µM | 1 to 5 µM | –
COc1cc(N(C)CCN(C)C)c(NC(=O)/C=C/CN(C)CCOCCOCCOCCOCCOCCCCCc2cc(Cl)cc(NC(=O)NCc3ccc4c(c3)CN(C3CCC(=O)NC3=O)C4=O)c2)cc1Nc1nccc(-c2cn(C)c3ccccc23)n1 (stereo not shown) [Compound I-151] | 0.25 to 5 µM | 0.1 to 1 µM | –
C=C(F)C(=O)N1CCN(c2nc(OC[C@@H]3CCCN3CCCOCCOCCOCCOCCOCCCCCc3cccc(NC(=O)NCc4ccc5c(c4)CN(C4CCC(=O)NC4=O)C5=O)n3)nc3c2CCN(c2cccc4cccc(Cl)c24)C3)C[C@@H]1CC#N (stereo partly shown) [Compound I-152] | > 10 µM | – | 3 to 10 µM
C=CC(=O)NC1CN(c2nc(Nc3cn(CCOCCOCCOCCOCCOCCCCCc4cc(Cl)cc(NC(=O)NCc5ccc6c(c5)CN(C5CCC(=O)NC5=O)C6=O)c4)nc3OC)c3ncn(C)c3n2)C[C@H]1F (stereo partly shown) [Compound I-155] | < 0.25 µM | 0.1 to 1 µM | –
COc1nn(C)cc1Nc1nc(N2CC(NC(=O)/C=C/CN(C)CCOCCOCCOCCOCCOCCCCCc3cc(Cl)cc(NC(=O)NCc4ccc5c(c4)CN(C4CCC(=O)NC4=O)C5=O)c3)[C@H](F)C2)nc2c1ncn2C (stereo partly shown) [Compound I-159] | 0.25 to 5 µM | 1 to 5 µM | –
C=CC(=O)Nc1cc(Nc2nccc(-c3cn(C)c4ccccc34)n2)c(OC)cc1N(C)CCN(C)CCOCCOCCOCCOCCOCCOCCOCCOCCOCCCCCc1cc(Cl)cc(NC(=O)NCc2ccc3c(c2)CN(C2CCC(=O)NC2=O)C3=O)c1 (stereo not shown) [Compound I-160] | 0.25 to 5 µM | 0.1 to 1 µM | –
C=CC(=O)Nc1cc(Nc2nccc(-c3cn(C)c4ccccc34)n2)c(OC)cc1N(C)CCN(C)CCOCCOCCOCCOCCOCCOCCOCCOCCOCCOCCOCCCCCc1cc(Cl)cc(NC(=O)NCc2ccc3c(c2)CN(C2CCC(=O)NC2=O)C3=O)c1 (stereo not shown) [Compound I-161] | 0.25 to 5 µM | 1 to 5 µM | –
